Results from paper PMC12266748, “A Xanthine Derivative With Novel Heat Shock Protein 90‐Alpha Inhibitory and Senolytic Properties” (Aging Cell, 2025).
Read-outs that look alike come from different tables or passages of the source.

What was measured:
MCF7 cells = test: Dose-response curves on proliferating and Tamoxifen-induced senescent MCF7 (Incucyte); format: cell-based, Homo sapiens
Excerpt: (§1) IMR90 and WI38 lung fibroblasts were purchased from ECACC‐Merck. Human bone marrow (BM)‐derived mesenchymal stromal cells (MSCs) were purchased from Lonza. Human umbilical vein endothelial cells (HUVECs) are primary cells obtained from a pool of donors purchased from Clonetics (Lonza). Murine ear fibroblasts (MearFs) were obtained from C57BL/6J mice maintained in the INRCA “Specific Pathogen Free” (SPF) animal facility. MCF7 breast cancer cells were purchased from ATCC. For dose–response curves, IMR90 and WI38 were induced to senescence through replicative passages; MSCs, HUVECs, and MearFs senescence was induced with Doxorubicin; MCF7 senescence was induced with 4‐Hydroxytamoxifen (Lee et al. [2014]). The EC50 was calculated using GraphPad Prism 10 software. All treatment specifications are reported in the extended section.
(§2) MCF7 cell line (ATCC; HTB-22, Homo sapiens, breast cancer) was purchased from ATCC; cells were grown in MEM medium (Corning, New York, USA, #15-010-CVR) supplemented with 10% FBS (Gibco, Invitrogen, Carlsbad, CA, USA, #10270106), 1% glutamine (Corning #25005-CI), 1% penicillin and streptomycin (Corning #30002-CI). Cells were incubated at 37 °C with 5% CO2. Senescent status induction: MCF7 were plated 24 h before the treatment with 4-Hydroxytamoxifen (TAM) 10 μM to induce the senescence described by (Lee et al. 2014). Control cultures were treated with equal volumes of 75% ethanol as the vehicle. The treatment with TAM lasts 96 h, after which the cells have been washed and treated with the senolytic drugs K5 10 µM for another 96 h. The treatment with the senolytic compounds has been renewed at 48 h. Cell mortality and vitality curves after treatment with K5 (10 μM, orange) or Vehicle (DMSO, grey) were monitored using the Incucyte live-cell Analysis system (Sartorius, Goettingen, Germany). The estimated Senolytic index (SI) was calculated as the ratio between the EC50 in proliferating cells and the EC50 in senescent cells, extrapolated using GraphPad Prism 10 software.

Drosophila melanogaster = Drosophila melanogaster lifespan assay; format: in vivo
Description: Experiments were carried out with wild‐type Canton‐S Drosophila melanogaster, originating (Stock #64349) from the Bloomington Drosophila Stock Centre (Indiana University). Flies were reared on Nutri‐Fly Bloomington Formulation food medium (Genesee Scientific). Vials containing only fresh food were alternated with vials containing food supplemented with K5. The number of living flies was counted every 2–3 days. Detailed protocols are reported in the extended section.
Drosophila melanogaster maintenance and lifespan assays. All experiments were carried out with wild-type Canton-S Drosophila melanogaster. Canton-S flies originated (Stock #64349) from the Bloomington Drosophila Stock Centre (Indiana University, Bloomington, IN, USA). Flies were reared on Nutri-Fly Bloomington Formulation food medium (Genesee Scientific, El Cajon, CA, USA) prepared using 176 g of Nutri-Fly per liter of distilled H2O. After cooling to 70°C, 4.8 mL of propionic acid (Merck KGaA, Darmstadt, Germany) per liter of food was added. Flies were maintained at constant temperature (25.0 ± 0.2°C) with 60% relative humidity on a 12 h:12 h 300 lux light-dark cycle generated by a 4000°K LED lamp (Fridge 1.5W, Ecoman Italia S.r.l., Frascati, Italy).
For lifespan assays, newly enclosed Drosophila melanogaster (1 to 2 days old) were collected and placed separately in vials (each containing 10 male and 10 female flies). Two experiments were performed. In the first experiment, 300 flies were randomly divided into three groups (CTRL, K5 10 µg/mL, and K5 100 µg/mL). Vials containing only fresh food (Nutri-Fly Bloomington Formulation food medium) were alternated 3 times a week with vials containing food supplemented with K5. The K5 was dissolved in DMSO and then diluted 1:10 in corn oil. 5 µL of corn oil (containing 0, 10 µg, or 100 µg of K5) was added to each mL of freshly prepared Nutri-Fly Bloomington Formulation food medium. In the second experiment, 900 flies were divided by sex into CTRL group and K5 10 µg/mL treated group. […] All experiments counted the number of living flies every 2–3 days.

IMR90 cells = test: Dose-response curves on proliferating and replicative senescent IMR90 (Trypan blue cell count); format: cell-based; conditions: for EC50: Homo sapiens, IMR-90
Excerpt: as §1
Cell culture and treatment. IMR90 cells (Homo sapiens, fetal lung, fibroblast) and WI38 cells (Homo sapiens, fetal lung, fibroblast) were purchased from ECACC-Merck (Merck, Darmstadt, Germany) and cultured in MEM medium (Euroclone, Milano, Italy) supplemented with 1% L-Glutamine (Euroclone, Milano, Italy), 1% Penicillin-Streptomycin (Euroclone, Milano, Italy), and 10% Fetal Bovine Serum (FBS, Euroclone, Milano, Italy), at 37°C, 5% CO2. IMR90 cells with a population doubling (PD) from PD15 to PD23 were used; cells were considered incrementally senescent from passage PD19 to passage PD23. WI38 cells were used from PD26 to PD53. Cells were considered incrementally senescent from passage PD49 to passage PD53. For the compounds in vitro screening, IMR90 cells with passages from PD15 to PD23 were tested at increasing concentrations of 0.5 μM, 1 μM, 10 μM, and 25 μM over 24 and 48 h to evaluate the compounds' efficacy and cytotoxicity compared to the Vehicle (DMSO ≤ 0.1%). Cells were counted manually, in triplicate, using Trypan blue reagent (Euroclone) and disposable Bürker chambers. […] K5 dose-response proliferation curves were performed with compound K5 (Molport, SIA, Riga, Latvia) in concentrations 0.1, 0.5, 1, 5, 10, 50, 100, and 200 μM for 48 h. Cells were counted using a Trypan blue reagent and EVAplus cell counter. The EC50s were calculated by analyzing the data using GraphPad Prism 10 software.
as §2

In the case of `Cc1ccccc1-n1c(=O)n(Cc2ccccc2)c(=O)c2[nH]cnc21` [Compound K5, 1-benzyl-3-(2-methylphenyl)-7H-purine-2,6-dione], the EC50 (MCF7 cells; Homo sapiens, MCF7, 96 h, MCF7, K5 96 h, read-out: EC50 proliferating cells) is reported as 167 µM, the EC50 (MCF7 cells; Homo sapiens, MCF7, 96 h, MCF7, TAM 10 μM 96 h, then K5 96 h, read-out: EC50 senescent cells) is reported as 24.4 µM and the “Senolytic evidence (no, partly/yes)” value (MCF7 cells; MCF7, 4-hydroxy-tamoxifen) is reported as “Yes”. For the same compound, the EC50 (MCF7 cells; MCF7, K5 96 h, read-out: EC50 proliferating cells) was 167 µM, the EC50 (MCF7 cells; MCF7, TAM 10 μM 96 h, then K5 96 h, read-out: EC50 senescent cells) was 24 µM and the “Senolytic index (estimated)” value (MCF7 cells; MCF7, SI = EC50 in proliferating cells/EC50 senescent cells) was 7. The “effect on lifespan, preliminary treatment” value (Drosophila melanogaster; K5 10 μg/mL and 100 μg/mL, 100 flies per group, p = 0.034) was “significant overall difference in lifespan”, the “increase of average lifespan compared to controls” value (Drosophila melanogaster; K5 10 μg/mL in food from day 20, n = 884) was 6.63% and the “average lifespan of treated flies” value (Drosophila melanogaster; K5 10 μg/mL in food from day 20, n = 884, controls 47.54 days ± 0.74 SE) was 50.69 days. The EC50 (IMR90 cells; IMR90, Replicative/passages, read-out: EC50 senescent cells) was 0.38 µM, the EC50 (IMR90 cells; IMR90, read-out: EC50 proliferating cells) was > 500 µM and the “Senolytic evidence (no, partly/yes)” value (IMR90 cells; IMR90, Replicative/passages) was “Yes”. For the same compound, the “Senolytic index (estimated)” value (IMR90 cells; IMR90, SI = EC50 in proliferating cells/EC50 senescent cells) was > 1320 and the “toxicity in proliferating cells” value (IMR90 cells; proliferating IMR90 (PD15), 100 nM to 200 μM, 48 h) was “no evident toxicity”.
